Test results from patent US8741851B2, “Peptides having antimicrobial activity” (Universiti Malaya, priority 2012, dated 2014).
Where no end group is shown, it is not given here.

How the values were obtained:
[1] = system: penicillin-resistant pneumococci; assay: broth microdilution MIC, penicillin-resistant pneumococci; assay type: cell-based, Streptococcus pneumoniae; settings: 20 isolates; for ER (effective range of MIC): 5×10^5 cfu/ml
From the text: (§1) The antimicrobial peptides are thereafter tested using broth microdilution assay 5×10^5 cfu/ml against a total of 60 pneumococcal isolates (20 isolates for each penicillin-susceptible, penicilin-intermediate, and penicilin-resistant pneumococci) to determine their minimum inhibitory concentration (MIC).
(§2) The minimum inhibitory concentration of the antimicrobial peptide for Pro-His-Trp-Trp-Lys-Trp-Ala-Trp-Trp-His-His-Arg-Arg (SEQ ID NO:1), Lys-His-Trp-Trp-Lys-His-Asp-Trp-Trp-Arg-Trp-Arg-Arg (SEQ ID NO:2), and Ile-Leu-Trp-Trp-Leu-Leu-Ala-Trp-Trp-Arg-Trp-Pro-His (SEQ ID NO:3) are presented in Table 1. An effective range (ER) is defined as the range of the minimum inhibitory concentration to which the antimicrobial peptide produces detectable activity against the bacterial pathogens, whereas an effective percentage (EP) is the percentage of isolates inhibited with the effective range. From the Table 1, the SEQ ID NO:1 inhibited 95% penicillin-resistant pneumococci at the effective range of 62.5 to 250 μg/ml, 85% penicilin-intermediate pneumococci was inhibited at the effective range of 62.5 to 250 μg/ml, and 80% penicilin-susceptible pneumococci was inhibited at the effective range of 125 to 250 μg/ml. The SEQ ID NO:2 inhibited 100% of penicillin-resistant pneumococci at the effective range of 62.5 to 250 μg/ml, 95% penicilin-intermediate pneumococci was inhibited at the effective range of 125 to 250 μg/ml, and 95% penicilin-susceptible pneumococci was inhibited at the effective range of 62.5 to 250 μg/ml. […] However, the antipneumococcal activity is not detected for SEQ ID NO:3 up to the maximum concentration (250 μg/ml) tested.

[2] = system: penicilin-intermediate pneumococci; assay: broth microdilution MIC, penicilin-intermediate pneumococci; assay type: cell-based, Streptococcus pneumoniae; settings: 20 isolates; for ER (effective range of MIC): 5×10^5 cfu/ml
From the text: as §1, §2

[3] = system: penicilin-susceptible pneumococci; assay: broth microdilution MIC, penicilin-susceptible pneumococci; assay type: cell-based, Streptococcus pneumoniae; settings: 20 isolates; for ER (effective range of MIC): 5×10^5 cfu/ml
From the text: as §1, §2

Streptococcus pneumoniae = assay: broth microdilution MIC, all 60 pneumococcal isolates; assay type: cell-based; settings: for Overall EP: all 60 pneumococcal isolates irrespective of penicillin susceptibility; for overall effective percentage relative to the indolicidin class of antimicrobial peptide: higher than indolicidin, irrespective of penicillin susceptibility
From the text: as §1, §2

Pseudomonas aeruginosa = assay: antimicrobial activity against bacterial pathogens; assay type: cell-based; settings: Gram-negative
Acinetobacter baumannii = assay: antimicrobial activity against bacterial pathogens; assay type: cell-based; settings: Gram-negative
Method: as §1
(§3) In a preferred embodiment, the SEQ ID NO:1 is weakly effective against Acinetobacter baumannii at 125 μg/ml only. The SEQ ID NO:2 has broader spectrum which effective against Acinetobacter baumannii, Staphylococcus aureus, methicillin-resistant Staphylococcus aureus, Escherichia coli, Enterococcus cloacae at 125 μg/ml respectively.

Escherichia coli = assay: antimicrobial activity against bacterial pathogens; assay type: cell-based; settings: Gram-negative
Method: as §1, §3

Staphylococcus aureus = assay: antimicrobial activity against bacterial pathogens; assay type: cell-based; settings: Gram-positive
Method: as §1, §3

[4] = system: methicillin-resistant Staphylococcus aureus; assay: antimicrobial activity against bacterial pathogens; assay type: cell-based; settings: Gram-positive
Method: as §1, §3

[5] = antimicrobial activity against bacterial pathogens; assay type: cell-based, Enterococcus cloacae; settings: Gram-negative
Method: as §1, §3

Citrobacter spp. = assay: antimicrobial activity against bacterial pathogens; assay type: cell-based; settings: Gram-negative
K. pneumoniae = assay: antimicrobial activity against bacterial pathogens; assay type: cell-based; settings: Gram-negative

Sequence	EP (effective percentage, isolates inhibited within ER) [1] [%]	ER (effective range of MIC) [1] [µg/mL]	EP (effective percentage, isolates inhibited within ER) [2] [%]	ER (effective range of MIC) [2] [µg/mL]	EP (effective percentage, isolates inhibited within ER) [3] [%]	ER (effective range of MIC) [3] [µg/mL]	Overall EP (Streptococcus pneumoniae) [%]	antimicrobial activity (inhibitory concentration) against P. aeruginosa (Pseudomonas aeruginosa) [µg/mL]	antimicrobial activity (inhibitory concentration) against A. baumannii (Acinetobacter baumannii) [µg/mL]	antimicrobial activity (inhibitory concentration) against E. coli (Escherichia coli) [µg/mL]	antimicrobial activity (inhibitory concentration) against S. aureus (Staphylococcus aureus) [µg/mL]	antimicrobial activity (inhibitory concentration) against methicillin-resistant S. aureus [4] [µg/mL]	antimicrobial activity (inhibitory concentration) against E. cloacae [5] [µg/mL]	antimicrobial activity (inhibitory concentration) against Citrobacter spp. (Citrobacter spp.) [µg/mL]	antimicrobial activity (inhibitory concentration) against K. pneumoniae (K. pneumoniae) [µg/mL]	overall effective percentage relative to the indolicidin class of antimicrobial peptide (Streptococcus pneumoniae)	antipneumococcal activity (Streptococcus pneumoniae; up to the maximum concentration (250 μg/ml) tested)
ILWWKWAWWRWRR [reference compound]	45	62.5 to 250	30	125 to 250	65	31.25 to 250	46.7	>250	125	250	62.5	31.25	125	62.5	>250		
KHWWKHDWWRWRR [SEQ ID NO:2]	100	62.5 to 250	95	125 to 250	95	62.5 to 250	96.7	62.5	125	125	125	125	125	31.25	>250	approximately two fold	
ILWWLLAWWRWPH [SEQ ID NO:3]	0	>250	0	>250	0	>250	0	>250	>250	>250	7.81	>250	>250	>250	>250		not detected
PHWWKWAWWHHRR [SEQ ID NO:1]	95	62.5 to 250	85	62.5 to 250	80	125 to 250	86.7	>250	125	>250	>250	>250	>250	>250	>250	approximately two fold	
